Data published in patent US9795570B2, “Modulation of macrophage phenotype by emodin” (University of South Carolina, priority 2016, dated 2017).

Experiments:
[1] = system: NFκB p65, STAT1, IRF5, STAT6, IRF4; experiment: Nuclear translocation of transcription factors (western blotting of nuclear fractions); type: cell-based, mouse; settings: emodin 50 μM 24 h
Protocol: Following stimulation with IL4 or LPS+IFNγ with or without emodin for varying periods, macrophages were lysed with cell signaling lysis buffer (Millipore) for whole cell lysates. Cytoplasmic and nuclear extracts were prepared using the Epiquik Nuclear Extraction kit (Epigentek, Farmingdale, N.Y.). Total protein was separated on 4-20% Tris-glycine pre-cast gels (Pierce) and transferred onto Nitrocellulose membranes (Bio-Rad Life Science, Hercules, Calif.). The membranes were then probed with HRP conjugated secondary antibodies, and signals were detected using Pierce ECL Western Blotting Substrate (Pierce).

4T1 tumors = experiment: 4T1 breast tumor model in BALB/c mice; type: in vivo
Protocol: C57BL/6 and BALB/c mice (8-12 weeks, female) were purchased from Jackson Labs (Bar Harbor, Me.). They were housed at the University of South Carolina Animal Research Facility, and all procedures were approved by the Institutional Animal Care and Use Committee. EO771 or 4T1 cells (2×10^5) in 20 μL of PBS were injected into the 4th pair of mammary glands on C57BL/6 mice or BALB/C, respectively, on Day 0. Starting on Day 1, emodin (40 mg/kg) or vehicle (2% DMSO) was injected intraperitoneally in 1 ml PBS once daily. The tumor size was measured using a caliper every 2-4 days, and the tumor volume was calculated using a formula: V (mm^3)=L (major axis)×W^2 (minor axis)/2. Mice were sacrificed at various time points.
The tumor draining lymph nodes and tumors were collected, and cell populations were analyzed using flow cytometry. Briefly, cells were stained with anti-CD3 FITC, anti-CD4 APC or anti-CD8 APC, and anti-CD25 PE (Biolegend) in PBS containing 2% FBS for 30 min at 4° C. Samples were washed twice with staining buffer and analyzed by flow cytometry using a BD FACS flow cytometer and CXP software version 2.2 (BD Biosciences, San Jose, Calif.). Data were collected for 20,000 live events per sample.
At sacrifice, tumors were embedded in OCT. They were then cut into 8 μm thick frozen sections and placed on slides. For immunohistochemistry staining, the sections were fixed with 4% paraformaldehyde for 10 min, and then blocked with 0.01 M glycine containing 0.1% Triton x-100. Next, the sections were blocked with 5% BSA. They were then incubated in primary antibody overnight at 4° C.: anti-F4/80 (1:50, Biolegend), anti-pSTAT6 (1:50, Cell Signaling), or anti-C/EBPβ (1:50, Santa Cruz). The sections were washed with PBS and then incubated with secondary antibodies for 1 h at room temperature. The sections were then stained with DAPI (1 μg/mL) and coverslipped with DABCO. Slides were imaged using a Zeiss LSM 510 Confocal microscope (Zeiss, Peabody, Mass.). For quantitative analysis, the number of positive cells was manually counted in six random fields of view per section. CD31 staining was performed according to standard methodology. Slides were imaged on a Nikon ECLIPSE E600 microscope (Nikon, Melville, N.Y.) at 200× magnification (10 fields per section). The integrated optical density (IOD) of CD31 was quantified using Image-Pro Plus software.
Macrophages or T cells were isolated from 4T1 tumors from mice sacrificed at 6 weeks post implantation or from EO771 tumors 5 weeks post implantation, using EasySep™ Mouse PE Positive Selection Kit (Stem Cell Technologies, Vancouver, BC). For cell isolation, 1×10^7-1×10^8 cells were incubated with 20 μL PE conjugated anti-F4/80 (Biolegend) for macrophages or 20 μL PE conjugated anti-CD3 for T cells and 50 μL microbeads. The T cells and macrophages were lysed in Qiazol and used for RT-PCR analysis. For ChIP assays, 5-10×10^6 macrophages were fixed in 1% formaldehyde.
Macrophages were fixed in 1% formaldehyde. Excess formaldehyde was quenched with glycine, and the cells were collected in PBS by scraping. The cells were lysed (0.5% IGEPAL, 4 mM HEPES), and the nuclei were resuspended in nuclear lysis buffer (1% SDS, 10 mM EDTA, and 50 mM Tris, pH 8.1). The DNA was sheared by sonication using a Diagnode Bioruptor Pico (Diagenode, Denville, N.J.) for 25 cycles of 30 s on/30 s off. Then 8 μg chromatin was diluted 1:10 (0.01% SDS, 1.1% Triton X-100, 1.2 mM EDTA, 16.7 mM Tris-HCl, pH 8.1, 167 mM NaCl), and 2% of the input was removed from each sample and saved for analysis. Anti-H3K27m3 (Abcam) was added to each sample along with 20 μL of protein A+G magnetic beads (Millipore), and the samples were incubated overnight at 4° C. The beads were washed with low salt, high salt, LiCl, and TE wash buffers sequentially, and the DNA was eluted off the beads with Proteinase K at 62° C. for 2 h (elution buffer: 200 mM NaCl, 1% SDS and 50 mM Tris). The DNA was then analyzed by qPCR.

4T1 cells = experiment: Tumor cell gene expression (qPCR); type: cell-based, mouse; settings: 24 h post-treatment
Protocol: (§1) For qPCR, cells were lysed with Qiazol, and RNA was extracted using Zymo research Direct-zol RNA isolation kit. cDNA was then made from 1 μg of RNA using iScript cDNA Synthesis Kit (Bio-Rad Life Science, Hercules, Calif.). Run conditions were 95° C. for 10 s, 58° C. for 15 s, 70° C. for 15 s. Samples were run in duplicate on a Bio-rad CFX Real Time thermocycler.

EO771 cells = experiment: Tumor cell gene expression (qPCR); type: cell-based, mouse; settings: 24 h post-treatment
Protocol: as §1

[2] = system: peritoneal macrophages and 4T1 cells; experiment: Tumor cell-macrophage adhesion; type: cell-based, mouse
Protocol: Tumor cell monolayers (80-90% confluent) and macrophages were treated with emodin (0-25 μM) overnight. The cells were then washed multiple times with PBS, and fresh SF DMEM was added. Macrophages were resuspended with scraping and 5×10^5 cells were seeded onto the tumor cell monolayers. After 1 h the non-adherent cells were washed away, and the adherent cells were resuspened with Trypsin and mild scraping. The total number of cells was counted, and cells were stained with anti-F4/80 FITC (Biolegend). The cells were analyzed on a Beckman Coulter FC500.

[3] = 40 mg/kg IP once daily from Day 1

Cc1cc(O)c2c(c1)C(=O)c1cc(O)cc(O)c1C2=O [emodin]
STAT6 nuclear translocation ([1]; IL4 stimulation): drastically inhibit
nuclear IRF4 ([1]; IL4 stimulation): inhibited
NFκB p65 nuclear translocation ([1]; LPS/IFNγ stimulation): drastically inhibit
STAT1 and IRF5 nuclear translocation ([1]; LPS/IFNγ stimulation): inhibited
primary tumor growth (4T1 tumors; [3]): significant inhibition
tumor weight at the endpoint (4T1 tumors; [3]): significant inhibition
fraction of macrophages positive for pSTAT6 and C/EBPβ (4T1 tumors; 26 days post implantation): significantly reduced
number of macrophages in tumors (4T1 tumors; 26 days post implantation, tumor size not different): significantly reduced
H3K27m3 levels on the IRF4 promoter in TAMs (4T1 tumors; ChIP-qPCR): significantly increased
expression of IRF4 in TAMs (4T1 tumors; experimental endpoint, RT-qPCR): significantly decreased
expression of JMJD3 in TAMs (4T1 tumors; experimental endpoint, RT-qPCR): significantly decreased
activated CD4+ and CD8+ T cells in draining lymph nodes (4T1 tumors; flow cytometry, CD25): increased
IFNγ expression in CD3+ T cells vs control mice (4T1 tumors; qPCR): two-fold increase
expression of MCP1, CSF1, and CSF2 (4T1 cells): significantly inhibited
tumor cell expression of Thy1 (4T1 cells): significantly inhibited
expression of MCP1, CSF1, and CSF2 (EO771 cells): significantly inhibited
tumor cell expression of Thy1 (EO771 cells): significantly inhibited
adhesion of macrophages to a monolayer of tumor cells ([2]; emodin treatment of both macrophages and tumor cells): decreased the adhesion even further
adhesion of macrophages to a monolayer of tumor cells ([2]; emodin treatment of either macrophages or tumor cells): significantly inhibited
